The values that follow come from patent US20160067272A1, “METHODS FOR TREATING IMMUNE DISEASES” (priority 2013, published 2016).

For data set [1], the system named is CD4+CD25+ nTregs. Nature of the data set: IL-17A secretion by nTregs cultured with NAD+ and purinergic receptor antagonists. Conditions: for reduction of IL-17A cytokine production induced by NAD+: both selective antagonists (5-BDBD and A804598) added; for production of IL-17A cytokine induced by NAD+: nTregs cultured with NAD+ and the selective antagonist (5-BDBD: P2RX4; A804598: P2RX7; MRS 2279: P2RY1), ELISA. Background: An ELISA detects its analyte on a solid surface through an enzyme-linked reagent.

The target of data set [2] is T1, Tph-1 (Mus musculus, UniProt P17532).
T1 construct: from tissue; host or cells: whole animal: C57BL/6 mice (Charles River Laboratories)
T1 sequence (P17532 1-447): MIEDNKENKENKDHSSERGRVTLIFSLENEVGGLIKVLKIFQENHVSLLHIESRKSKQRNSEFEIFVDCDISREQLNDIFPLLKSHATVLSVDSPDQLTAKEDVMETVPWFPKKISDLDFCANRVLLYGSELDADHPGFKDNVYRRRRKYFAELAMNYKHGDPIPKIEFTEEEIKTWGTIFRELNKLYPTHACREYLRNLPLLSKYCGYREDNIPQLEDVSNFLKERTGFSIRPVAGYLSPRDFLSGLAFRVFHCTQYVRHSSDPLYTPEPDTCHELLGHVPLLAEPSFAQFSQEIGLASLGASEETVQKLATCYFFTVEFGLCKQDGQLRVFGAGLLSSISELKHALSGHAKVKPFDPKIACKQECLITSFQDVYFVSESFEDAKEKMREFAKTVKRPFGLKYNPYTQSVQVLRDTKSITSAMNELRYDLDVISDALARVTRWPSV
Nature of the data set: EAE mouse model with Tph-1 inhibition (NAD+ plus p-Chlorophenylalanine). Type of data set: in vivo. As to the method: Tph-1 has been very recently shown to prevent from allograft rejection and EAE^45. Thus, it was tested, in vivo, whether NAD^+ protects from EAE and regulates CD4^+ T cell differentiation through Tph1. Mice were subjected to EAE and were treated daily with a placebo solution (PBS) or NAD^+ in addition to p-Chlorophenylalanine, a specific inhibitor of Tph-1.
Onsets of clinical signs of EAE in mice injected with MOG peptide and a placebo solution appeared after 11 days (FIG. 6A). […] However, when NAD^+ treated mice received simultaneously a treatment with a Tph-1 inhibitor, onset of clinical signs of EAE appeared after 11 days.
EAE was induced in 10-week-old C57BL/6 mice using Hooke Labs EAE induction kit (EK-2110) according to manufacturer's instructions. […] For NAD^+ treatment mice received a daily intraperitoneal injection (60 mg in 100 μl in PBS) or a placebo solution (100 μl of PBS) at the same day than MOG immunization. Mice were sacrificed at day 18 and single cell suspension was obtained from spleens for flow cytometry analysis. To test whether NAD^+ was able to reverse the development of EAE, another group of mice was treated daily (for a period of 10 days) with NAD^+ (60 mg/mouse) or a placebo solution 15 days after MOG immunization when mice were scored 3 with a bilateral hindlimb paresis. EAE disease progression was monitored. For Tph-1 or CA3 inhibition, mice received daily intraperitoneal injections (simultaneous to NAD^−) of p-Chlorophenylalanine (1 ml of a 10 mM solution stock, catalog number 0938, Tocris Bioscience) or N-[[[(1S)-1-Carboxy-3-methylbutyl]amino]carbonyl]-L-glutamic acid (100 μl of a 100 mM solution stock, ZJ 43 catalog number 2675,Tocris Bioscience), respectively.

Where [3] appears, read: NAD+ plus Tph-1 inhibition, flow cytometry.
[4] abbreviates: NAD+ treatment followed by Tph-1 inhibition, spleen, flow cytometry.

Each structure is given as a SMILES string.

Take `C[C@H](NC(=NC#N)Nc1cccc2ncccc12)c1ccccc1` [A804598, 2-cyano-1-[(1S)-1-phenylethyl]-3-quinolin-5-ylguanidine]: in data set [1], the “reduction of IL-17A cytokine production induced by NAD+” value is on record as “complete” and the “production of IL-17A cytokine induced by NAD+” value was “dramatic reduced production”.

As to `CNc1nc(Cl)nc2c1ncn2[C@H]1C[C@H](OP(=O)(O)O)[C@]2(COP(=O)(O)O)C[C@H]12` [MRS 2279, 2-Chloro N(6)-methyl-(N)-methanocarba-2′-deoxyadenosine-3′,5′-bisphosphate], the “production of IL-17A cytokine induced by NAD+” value in data set [1] is given as “did not change”.

For `O=C1CN=C(c2cccc(Br)c2)c2oc3ccccc3c2N1` [5-BDBD], in data set [1], the “reduction of IL-17A cytokine production induced by NAD+” value was “complete” and the “production of IL-17A cytokine induced by NAD+” value is recorded as “dramatic reduced production”.

On to `N[C@@H](Cc1ccc(Cl)cc1)C(=O)O` (racemic) [p-Chlorophenylalanine], for which the clinical observation result in data set [2] (EAE mice treated with NAD+ and Tph-1 inhibitor) is “hindlimb paralysis and became rapidly lethargic”. In addition, the “clinical signs of EAE vs MOG + placebo group” value in data set [2] (NAD+ and p-Chlorophenylalanine, 13 days after MOG immunization) is listed as “more severe clinical signs of EAE”. Besides, in data set [2] (setting [3]), the “CD4+CD25+Foxp3+ cell frequencies” value is given as “dramatic decrease” and the “IL-17A+IL-23R+ cells” value is on record as “significant increase”. In data set [2] (NAD+ treated mice receiving Tph-1 inhibitor simultaneously, after MOG immunization), the “onset of clinical signs of EAE” value is 11 days. In addition, in data set [2] (setting [4]), the IL-10/IFNγ producing cells result is given as “reduced systemically” and the IL-17A producing cells result is “reduced systemically”.
